# Experimental data: US8586550B2, “Thiazole derivatives as SGLT2 inhibitors and pharmaceutical composition comprising same” (Green Cross Corporation, priority 2010, dated 2013)
# Molecular target: T1, Human SGLT2 (hSGLT2) (Homo sapiens, UniProt P31639)
# T1 construct: expressed in transfected cells
# T1 sequence (P31639 1-672): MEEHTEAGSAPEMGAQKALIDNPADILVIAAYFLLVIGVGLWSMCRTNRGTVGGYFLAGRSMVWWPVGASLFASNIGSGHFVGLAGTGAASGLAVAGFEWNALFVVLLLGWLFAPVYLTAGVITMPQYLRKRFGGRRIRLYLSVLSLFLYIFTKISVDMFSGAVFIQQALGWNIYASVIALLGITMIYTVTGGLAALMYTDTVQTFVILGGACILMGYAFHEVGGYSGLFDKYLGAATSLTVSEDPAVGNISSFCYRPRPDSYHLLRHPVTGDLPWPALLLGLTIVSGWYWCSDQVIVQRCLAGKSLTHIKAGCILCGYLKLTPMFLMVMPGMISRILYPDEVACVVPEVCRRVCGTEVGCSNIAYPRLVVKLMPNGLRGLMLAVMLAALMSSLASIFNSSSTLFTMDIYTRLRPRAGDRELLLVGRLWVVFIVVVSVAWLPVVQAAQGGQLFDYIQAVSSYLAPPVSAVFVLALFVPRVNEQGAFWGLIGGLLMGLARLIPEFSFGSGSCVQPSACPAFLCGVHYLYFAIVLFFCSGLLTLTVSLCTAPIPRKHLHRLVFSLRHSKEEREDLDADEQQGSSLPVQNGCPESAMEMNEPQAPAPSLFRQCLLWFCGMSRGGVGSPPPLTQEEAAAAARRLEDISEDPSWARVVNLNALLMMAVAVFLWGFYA
# Assay: Sodium-dependent glucose transport (14C-AMG uptake) assay in CHO cells stably expressing hSGLT2
# Format: cell-based
# Details: CHO cells expressing hSGLT2, 14C-AMG uptake, 37° C. for 2 h; single determinations; read-out: hSGLT2 Inhibitory Activity IC50
# Text: Cloning and Cell Line Construction for Human SGLT2
# Human SGLT2 (hSGLT2) gene was amplified by PCR from cDNA-Human Adult Normal Tissue Kidney (Invitrogen). The hSGLT2 sequence was cloned into pcDNA3.1(+) for mammalian expression and were stably transfected into chinese hamster ovary (CHO) cells. SGLT2-expressing clones were selected based on resistance to G418 antibiotic (Geneticin) and activity in the ^14C-α-methyl-D-glucopyranoside (^14C-AMG) uptake assay.
# Inhibitory Effects on Human SGLT2 Activities
# For sodium-dependent glucose transport assay, cells expressing hSGLT2 were seeded into a 96-well culture plate at a density of 5×10^4 cells/well in RPMI medium 1640 containing 10% fetal bovine serum. The cells were used 1 day after plating. They were incubated in pretreatment buffer (10 mM HEPES, 5 mM Tris, 140 mM choline chloride, 2 mM KCl, 1 mM CaCl2, and 1 mM MgCl2, pH 7.4) at 37° C. for 10 min. They were then incubated in uptake buffer (10 mM HEPES, 5 mM Tris, 140 mM NaCl, 2 mM KCl, 1 mM CaCl2, 1 mM MgCl2, and 1 mM ^14C-nonlabeled AMG, pH 7.4) containing ^14C-labeled (8 μM) and inhibitor or dimethylsulfoxide (DMSO) vehicle at 37° C. for 2 h. Cells were washed twice with washing buffer (pretreatment buffer containing 10 mM AMG at room temperature) and then the radioactivity was measured using a liquid scintillation counter. IC50 was determined by nonlinear regression analysis using GraphPad PRISM [Katsuno, K. et al. J. Pharmacol. Exp. Ther. 2007, 320, 323-330; Han, S. et al. Deabetes, 2008, 57, 1723-1729].
row,SMILES,IC50 [nM]
1,"CCCc1cnc(Cc2cc([C@@H]3O[C@H](CO)C(O)[C@H](O)[C@H]3O)c3ccccc3c2OC)s1 (stereo in doubt) [Example 99, (2R,3R,4R,5R,6S)-2-(Hydroxymethyl)-6-(4-methoxy-3-((5-propylthiazol-2-yl)methyl)naphthalen-1-yl)-tetrahydro-2H-pyran-3,4,5-triol]",19.2
2,"COc1c(Cc2ncc(-c3ccc(F)cc3)s2)cc([C@@H]2O[C@H](CO)[C@@H](O)[C@H](O)[C@H]2O)c2ccccc12 [Example 2, (2S,3R,4R,5S,6R)-2-(3-((5-(4-Fluorophenyl)thiazol-2-yl)methyl)-4-methoxynaphthalen-1-yl)-6-(hydroxymethyl)-tetrahydro-2H-pyran-3,4,5-triol]",12
3,"OC[C@H]1O[C@@H](c2ccc(Cl)c(C3(c4ncc(-c5ccco5)s4)CC3)c2)[C@H](O)[C@@H](O)[C@@H]1O [Example 3, (2S,3R,4R,5S,6R)-2-(4-Chloro-3-(1-(5-(furan-2-yl)thiazol-2-yl)cyclopropyl)phenyl)-6-(hydroxymethyl)-tetrahydro-2H-pyran-3,4,5-triol]",47.1
4,"OC[C@H]1O[C@@H](c2ccc(C(F)(F)F)c(Cc3ncc(-c4ccco4)s3)c2)[C@H](O)[C@@H](O)[C@@H]1O [Example 4, (2S,3R,4R,5S,6R)-2-(3-((5-(Furan-2-yl)thiazol-2-yl)methyl)-4-(trifluoromethyl)phenyl)-6-(hydroxymethyl)-tetrahydro-2H-pyran-3,4,5-triol]",9.73
5,"OC[C@H]1O[C@@H](c2ccc(Cl)c(Cc3ncc(-c4ccc(Cl)s4)s3)c2)[C@H](O)[C@@H](O)[C@@H]1O [Example 8, (2S,3R,4R,5S,6R)-2-(4-Chloro-3-((5-(5-chlorothiophen-2-yl)thiazol-2-yl)methyl)phenyl)-6-(hydroxymethyl)tetrahydro-2H-pyran-3,4,5-triol]",13.3
6,"OC[C@H]1O[C@@H](c2ccc(Cl)c(Cc3ncc(-c4ccc(F)cc4)s3)c2)[C@H](O)[C@@H](O)[C@@H]1O [Example 11, (2S,3R,4R,5S,6R)-2-(4-Chloro-3-((5-(4-fluorophenyl)thiazol-2-yl)methyl)phenyl)-6-(hydroxymethyl)-tetrahydro-2H-pyran-3,4,5-triol]",21.2
7,"CCc1cnc(Cc2cc([C@@H]3O[C@H](CO)[C@@H](O)[C@H](O)[C@H]3O)ccc2Cl)s1 [Example 12, (2S,3R,4R,5S,6R)-2-(4-chloro-3-((5-ethylthiazol-2-yl)methyl)phenyl)-6-(hydroxymethyl)-tetrahydro-2H-pyran-3,4,5-triol]",16.7
8,"CCCCc1cnc(Cc2cc([C@@H]3O[C@H](CO)[C@@H](O)[C@H](O)[C@H]3O)ccc2Cl)s1 [Example 13, (2S,3R,4R,5S,6R)-2-(3-((5-Butylthiazol-2-yl)methyl)-4-chlorophenyl)-6-(hydroxymethyl)-tetrahydro-2H-pyran-3,4,5-triol]",119
9,"CCCCCc1cnc(Cc2cc([C@@H]3O[C@H](CO)[C@@H](O)[C@H](O)[C@H]3O)ccc2Cl)s1 [Example 14, (2S,3R,4R,5S,6R)-2-(4-Chloro-3-((5-pentylthiazol-2-yl)methyl)phenyl)-6-(hydroxymethyl)-tetrahydro-2H-pyran-3,4,5-triol]",13.3
10,"CC(C)c1cnc(Cc2cc([C@@H]3O[C@H](CO)[C@@H](O)[C@H](O)[C@H]3O)ccc2Cl)s1 [Example 16, (2S,3R,4R,5S,6R)-2-(4-Chloro-3-((5-isopropylthiazol-2-yl)methyl)phenyl)-6-(hydroxymethyl)-tetrahydro-2H-pyran-3,4,5-triol]",51.4
11,"C=CCc1cnc(Cc2cc([C@@H]3O[C@H](CO)[C@@H](O)[C@H](O)[C@H]3O)ccc2Cl)s1 [Example 17, (2S,3R,4R,5S,6R)-2-(3-((5-Allylthiazol-2-yl)methyl)-4-chlorophenyl)-6-(hydroxymethyl)-tetrahydro-2H-pyran-3,4,5-triol]",11.5
12,"OC[C@H]1O[C@@H](c2ccc(Cl)c(Cc3ncc(C4CCCC4)s3)c2)[C@H](O)[C@@H](O)[C@@H]1O [Example 19, (2S,3R,4R,5S,6R)-2-(4-Chloro-3-((5-cyclopentylthiazol-2-yl)methyl)phenyl)-6-(hydroxymethyl)-tetrahydro-2H-pyran-3,4,5-triol]",9.71
13,"OC[C@H]1O[C@@H](c2ccc(Cl)c(Cc3ncc(C4CCCCC4)s3)c2)[C@H](O)[C@@H](O)[C@@H]1O [Example 20, (2S,3R,4R,5S,6R)-2-(4-Chloro-3-((5-cyclohexylthiazol-2-yl)methyl)phenyl)-6-(hydroxymethyl)-tetrahydro-2H-pyran-3,4,5-triol]",25.4
14,"CCOc1cnc(Cc2cc([C@@H]3O[C@H](CO)[C@@H](O)[C@H](O)[C@H]3O)ccc2Cl)s1 [Example 21, (2S,3R,4R,5S,6R)-2-(4-Chloro-3-((5-ethoxythiazol-2-yl)methyl)phenyl)-6-(hydroxymethyl)-tetrahydro-2H-pyran-3,4,5-triol]",18.8
15,"CCCOc1cnc(Cc2cc([C@@H]3O[C@H](CO)[C@@H](O)[C@H](O)[C@H]3O)ccc2Cl)s1 [Example 22, (2S,3R,4R,5S,6R)-2-(4-Chloro-3-((5-propoxythiazol-2-yl)methyl)phenyl)-6-(hydroxymethyl)-tetrahydro-2H-pyran-3,4,5-triol]",12.4

# The next compounds have a lower IC50 than those just listed; values first:
row,IC50 [nM],SMILES
1,2,"OC[C@H]1O[C@@H](c2ccc(Cl)c(Cc3ncc(-c4ccsc4)s3)c2)[C@H](O)[C@@H](O)[C@@H]1O [Example 1, (2S,3R,4R,5S,6R)-2-(4-Chloro-3-((5-(thiophen-3-yl)thiazol-2-yl)methyl)phenyl)-6-(hydroxymethyl)-tetrahydro-2H-pyran-3,4,5-triol]"
2,1.75,"OC[C@H]1O[C@@H](c2ccc(Cl)c(Cc3ncc(-c4ccco4)s3)c2)[C@H](O)[C@@H](O)[C@@H]1O [Example 5, (2S,3R,4R,5S,6R)-2-(4-Chloro-3-((5-(furan-2-yl)thiazol-2-yl)methyl)phenyl)-6-(hydroxymethyl)-tetrahydro-2H-pyran-3,4,5-triol]"
3,6.25,"OC[C@H]1O[C@@H](c2ccc(Cl)c(Cc3ncc(-c4ccoc4)s3)c2)[C@H](O)[C@@H](O)[C@@H]1O [Example 6, (2S,3R,4R,5S,6R)-2-(4-Chloro-3-((5-(furan-3-yl)thiazol-2-yl)methyl)phenyl)-6-(hydroxymethyl)-tetrahydro-2H-pyran-3,4,5-triol]"
4,3.2,"OC[C@H]1O[C@@H](c2ccc(Cl)c(Cc3ncc(-c4cccs4)s3)c2)[C@H](O)[C@@H](O)[C@@H]1O [Example 7, (2S,3R,4R,5S,6R)-2-(4-Chloro-3-((5-(thiophen-2-yl)thiazol-2-yl)methyl)phenyl)-6-(hydroxymethyl)tetrahydro-2H-pyran-3,4,5-triol]"
5,7.48,"OC[C@H]1O[C@@H](c2ccc(Cl)c(Cc3ncc(-c4nccs4)s3)c2)[C@H](O)[C@@H](O)[C@@H]1O [Example 9, (2S,3R,4R,5S,6R)-2-(3-(2,5′-Bithiazol-2′-ylmethyl)-4-chlorophenyl)-6-(hydroxymethyl)-tetrahydro-2H-pyran-3,4,5-triol]"
6,6.86,"OC[C@H]1O[C@@H](c2ccc(Cl)c(Cc3ncc(-c4ccccn4)s3)c2)[C@H](O)[C@@H](O)[C@@H]1O [Example 10, (2S,3R,4R,5S,6R)-2-(4-Chloro-3-((5-(pyridin-2-yl)thiazol-2-yl)methyl)phenyl)-6-(hydroxymethyl)-tetrahydro-2H-pyran-3,4,5-triol]"
7,5,"CCCCCCc1cnc(Cc2cc([C@@H]3O[C@H](CO)[C@@H](O)[C@H](O)[C@H]3O)ccc2Cl)s1 [Example 15, (2S,3R,4R,5S,6R)-2-(4-Chloro-3-((5-hexylthiazol-2-yl)methyl)phenyl)-6-(hydroxymethyl)-tetrahydro-2H-pyran-3,4,5-triol]"
8,4.69,"C/C=C(\C)c1cnc(Cc2cc([C@@H]3O[C@H](CO)[C@@H](O)[C@H](O)[C@H]3O)ccc2Cl)s1 [Example 18, (2S,3R,4R,5S,6R,E)-2-(3-((5-(but-2-en-2-yl)thiazol-2-yl)methyl)-4-chlorophenyl)-6-(hydroxymethyl)-tetrahydro-2H-pyran-3,4,5-triol]"
